According to ChEMBL document CHEMBL1130371, “3-Substituted-4-hydroxy-7-chromanylacetic acid derivatives as antagonists of the leukotriene B4 (LTB4) receptor” (Bioorg Med Chem Lett, 1997):

Key:
[1] = molecular target: Leukotriene B4 receptor (Cavia porcellus); test: Inhibition of leukotriene B4 (LTB4) binding to guinea pig spleen
Leukotriene B4 receptor = Leukotriene B4 receptor (Homo sapiens, UniProt Q9NPC1+Q15722); test: Inhibition of LTB4 receptor induced chemotaxis of isolated human neutrophils; type: functional
Homo sapiens [2] = species: Homo sapiens; test: Antagonistic activity was evaluated against LT B4 on human neutrophils; type: functional
Homo sapiens [3] = species: Homo sapiens; test: Antagonistic activity was evaluated against LT D4 on human neutrophils; type: functional
Homo sapiens [4] = species: Homo sapiens; test: Compound was evaluated for the inhibition of LTB4 receptor -induced chemotaxis of isolated human neutrophils; IA means inactive; type: functional
[5] = tested on: Leukotriene B4 receptor (Cavia porcellus); test: Compound was evaluated for the inhibition of Leukotriene B4 (LTB4) receptor binding to guinea pig spleen derived receptor (GPS); IA means inactive

## O=C(O)c1ccc2c(c1)OC[C@H](Cc1ccccc1)[C@H]2O
[1]
  IC50: 20 µM
Leukotriene B4 receptor
  IC50: > 100 µM

## CCC(CC)(C(=O)O)c1ccc2c(c1)OC[C@H](Cc1ccccc1)[C@H]2O
[1]
  IC50: 0.29 µM
Leukotriene B4 receptor
  IC50: 0.17 µM

## CC(C)(C(=O)O)c1ccc2c(c1)OC[C@H](Cc1ccc(F)cc1F)[C@H]2O
[1]
  IC50: 8 µM
Leukotriene B4 receptor
  IC50: 6.2 µM

## CC(C)(C(=O)O)c1ccc2c(c1)OC[C@H](Cc1ccccc1)C2
[1]
  IC50: 17 µM
Leukotriene B4 receptor
  IC50: 25 µM

## CC(C(=O)O)c1ccc2c(c1)OC[C@H](Cc1ccccc1)[C@H]2O (stereo partly drawn)
[1]
  IC50: 13 µM
Homo sapiens [2]
  IC50: 0.79 µM
Homo sapiens [3]
  IC50: > 100 µM
Leukotriene B4 receptor
  IC50: 16.4 µM

## CNC(=O)C(C)(C)c1ccc2c(c1)OC[C@H](Cc1ccccc1)[C@H]2O
[1]
  IC50: > 100 µM
Leukotriene B4 receptor
  IC50: 1.5 µM

## O=C(O)C1(c2ccc3c(c2)OC[C@H](C(c2ccccc2)c2ccccc2)[C@H]3O)CCCC1
[1]
  IC50: 5.4 µM
Leukotriene B4 receptor
  IC50: 10 µM

## CC(C)(C(=O)O)c1ccc2c(c1)OC[C@H](Cc1cccc(F)c1)[C@H]2O
[1]
  IC50: 6 µM
Leukotriene B4 receptor
  IC50: 9.4 µM

## O=C(O)C1(c2ccc3c(c2)OC[C@H](Cc2ccc(C(F)(F)F)cc2)[C@H]3O)CCCC1
[1]
  IC50: 12 µM
Leukotriene B4 receptor
  IC50: 6 µM

## OCCc1ccc2c(c1)OC[C@H](Cc1ccccc1)[C@H]2O
[1]
  IC50: > 100 µM
Leukotriene B4 receptor
  IC50: > 50 µM

## CC(C)c1ccc2c(c1)OC[C@H](Cc1ccccc1)[C@H]2O
[1]
  IC50: 100 µM
Leukotriene B4 receptor
  IC50: 7.2 µM

## O=C(O)C1(c2ccc3c(c2)OC[C@H](Sc2ccccc2)[C@H]3O)CCCC1
[1]
  IC50: 0.56 µM
Leukotriene B4 receptor
  IC50: 0.5 µM

## CC(C(=O)O)c1ccc2c(c1)[C@H](O)[C@@H](Cc1ccccc1)CO2 (stereo partly drawn)
Homo sapiens [4]
  IC50: Not Active
[5]
  IC50: Not Active

## OCc1ccc2c(c1)OC[C@H](Cc1ccccc1)[C@H]2O
[1]
  IC50: > 100 µM
Leukotriene B4 receptor
  IC50: > 50 µM

## COc1cccc(C[C@H]2COc3cc(C(C)C(=O)O)ccc3[C@@H]2O)c1 (stereo partly drawn)
[1]
  IC50: 53 µM
Leukotriene B4 receptor
  IC50: 12.2 µM

## CC(C)(C(=O)O)c1ccc2c(c1)OC[C@H](CC1CCCCC1)[C@H]2O
[1]
  IC50: 34 µM
Leukotriene B4 receptor
  IC50: 20 µM

## CC(C)(C(=O)O)c1ccc2c(c1)OC[C@H](Cc1ccccn1)[C@H]2O
[1]
  IC50: 8 µM
Leukotriene B4 receptor
  IC50: 2.6 µM

## O=C(O)CCc1ccc2c(c1)OC[C@H](Cc1ccccc1)[C@H]2O
[1]
  IC50: 12 µM
Leukotriene B4 receptor
  IC50: 16 µM

## CC(C)(C(=O)O)c1ccc2c(c1)OC[C@H](Cc1ccc(Cl)cc1)[C@H]2O
[1]
  IC50: 4 µM
Leukotriene B4 receptor
  IC50: 5.4 µM

## O[C@H]1c2ccccc2OC[C@@H]1Cc1ccccc1
[1]
  IC50: 100 µM
Leukotriene B4 receptor
  IC50: > 50 µM

## O=C(O)C1(c2ccc3c(c2)OC[C@H](CCc2ccc(-c4ccccc4)cc2)[C@H]3O)CCCC1
[1]
  IC50: 3.2 µM
Leukotriene B4 receptor
  IC50: 5.8 µM

## O[C@H]1c2ccc(C3(C4N=NN=N4)CCCC3)cc2OC[C@@H]1C(c1ccccc1)C1CCCCC1 (stereo partly drawn)
[1]
  IC50: 0.35 µM
Leukotriene B4 receptor
  IC50: 1.5 µM

## O=C(O)C1(c2ccc3c(c2)OC[C@H](Cc2ccc(F)cc2F)[C@H]3O)CCCC1
[1]
  IC50: 2 µM
Leukotriene B4 receptor
  IC50: 1 µM

## COc1ccc(C[C@H]2COc3cc(C(C)C(=O)O)ccc3[C@@H]2O)cc1 (stereo partly drawn)
[1]
  IC50: 12 µM
Leukotriene B4 receptor
  IC50: 18.5 µM

## CC(C)(C(=O)N1CCCC1)c1ccc2c(c1)OC[C@H](Cc1ccccc1)[C@H]2O
[1]
  IC50: 40 µM
Leukotriene B4 receptor
  IC50: 1.7 µM

## O=C(O)C1(c2ccc3c(c2)OC[C@H](Cc2ccc4ccccc4n2)[C@H]3O)CCCC1
[1]
  IC50: 8.8 µM
Leukotriene B4 receptor
  IC50: > 50 µM

## O=C(O)C1(c2ccc3c(c2)OC[C@H](CCc2ccccc2)[C@H]3O)CCCC1
[1]
  IC50: 0.49 µM
Leukotriene B4 receptor
  IC50: 0.3 µM

## O=C(O)C1(c2ccc3c(c2)OC[C@H](Cc2cccs2)[C@H]3O)CCCC1
[1]
  IC50: 0.65 µM
Leukotriene B4 receptor
  IC50: 0.33 µM

## O=C(O)C1(c2ccc3c(c2)OC[C@H](CCCc2ccccc2)[C@H]3O)CCCC1
[1]
  IC50: 2.7 µM
Leukotriene B4 receptor
  IC50: 4.2 µM

## O=C(O)C1(c2ccc3c(c2)OC[C@H](Cc2ccccc2)[C@H]3O)CCC1
[1]
  IC50: 2.7 µM
Leukotriene B4 receptor
  IC50: 14 µM

## O=C(O)C1(c2ccc3c(c2)OC[C@H](Cc2ccccc2)[C@H]3O)CCCC1 (stereo in doubt)
[1]
  IC50: 3.4 µM
Leukotriene B4 receptor
  IC50: 1.1 µM

## CC(C)(C(=O)O)c1ccc2c(c1)OC[C@H](Cc1ccccc1)[C@H]2O (stereo in doubt)
[1]
  IC50: 40 µM
Leukotriene B4 receptor
  IC50: 12.5 µM

## O=C(O)Cc1ccc2c(c1)OC[C@H](Cc1ccccc1)[C@H]2O (stereo in doubt; 4)
[1]
  IC50: 25 µM
Leukotriene B4 receptor
  IC50: 12 µM

## O=C(O)Cc1ccc2c(c1)OC[C@H](Cc1ccccc1)[C@H]2O (stereo in doubt; 5)
[1]
  IC50: 30 µM
Leukotriene B4 receptor
  IC50: 34 µM

## CC(C)(C(=O)O)c1ccc2c(c1)OC[C@H](Cc1ccccc1)[C@H]2O (stereo in doubt; 6)
[1]
  IC50: 1.2 µM
Leukotriene B4 receptor
  IC50: 2.4 µM

## CC(C)(C(=O)O)c1ccc2c(c1)OC[C@H](Cc1ccccc1)[C@H]2O (stereo in doubt; 7)
[1]
  IC50: 2.3 µM
Leukotriene B4 receptor
  IC50: 5.7 µM

## CC(C)(C(=O)O)c1ccc2c(c1)OC[C@H](Cc1ccccc1)[C@H]2O (stereo in doubt; 8)
[1]
  IC50: 1.3 µM
Leukotriene B4 receptor
  IC50: 3.4 µM

## O=C(O)C1(c2ccc3c(c2)OC[C@H](Cc2ccccc2)[C@H]3O)CCCC1 (stereo in doubt; 11)
[1]
  IC50: 0.32 µM
Leukotriene B4 receptor
  IC50: 0.16 µM

## O=C(O)C1(c2ccc3c(c2)OC[C@H](Cc2ccccc2)[C@H]3O)CCCC1 (stereo in doubt; 12)
[1]
  IC50: 0.42 µM
Leukotriene B4 receptor
  IC50: 0.078 µM

## O=C(O)C1(c2ccc3c(c2)OC[C@H](Cc2ccccc2)[C@H]3O)CCCC1 (stereo in doubt; 13)
[1]
  IC50: 0.29 µM
Leukotriene B4 receptor
  IC50: 0.098 µM

## O=C(O)C1(c2ccc3c(c2)OC[C@H](Cc2ccccc2)[C@H]3O)CCCCC1 (stereo in doubt; 14)
[1]
  IC50: 0.2 µM
Leukotriene B4 receptor
  IC50: 0.38 µM

## O=C(O)C1(c2ccc3c(c2)OC[C@H](Cc2ccccc2)[C@H]3O)CCCCC1 (stereo in doubt; 15)
[1]
  IC50: 0.24 µM
Leukotriene B4 receptor
  IC50: 0.23 µM

## O=C(O)C1(c2ccc3c(c2)OC[C@H](Cc2ccccc2)[C@H]3O)CCCCC1 (stereo in doubt; 16)
[1]
  IC50: 0.25 µM
Leukotriene B4 receptor
  IC50: 0.17 µM
